Assay results from US20230017045A1, “PYRIDINE AND PYRIMIDINE CARBOXYLATE HERBICIDES AND METHODS OF USE THEREOF” (Dow AgroSciences LLC, priority 2017, published 2023).

System: test plant species
Test: Post-emergent herbicidal activity test (greenhouse, foliar spray, visual growth reduction)
Assay type: in vivo
Details: post-emergence, 336 h, ECHCG: barnyardgrass (Echinochloa crus-galli), 140 g ai/ha, 14 days after application, read-out: Visual Growth Reduction (%) 14 Days After Application, ECHCG
Protocol: Post-emergent Test: Seeds or nutlets of the desired test plant species were planted in Sun Gro Metro-Mix® 360 planting mixture, which typically has a pH of 6.0 to 6.8 and an organic matter content of about 30 percent, in plastic pots with a surface area of 64 square centimeters. In some aspects, to ensure good germination and healthy plants, a fungicide treatment and/or other chemical or physical treatment was applied. The plants were grown for 7-21 d in a greenhouse with an approximate 15 h photoperiod which was maintained at 23-29° C. during the day and 22-28° C. during the night. Nutrients and water were added on a regular basis and supplemental lighting was provided with overhead metal halide 1000-Watt lamps as necessary. Plants were used for testing when they reached the first or second true leaf stage. A weighed amount, determined by the highest rate to be tested, of each test compound was placed in a 25 mL glass vial and was dissolved in 4 mL of a 97:3 v/v mixture of acetone and DMSO to obtain concentrated stock solutions. […] The concentrated stock solutions obtained were diluted with 20 mL of an aqueous mixture containing acetone, water, isopropyl alcohol, DMSO, […] crop oil concentrate, and X-77 surfactant in a 48.5:39:10:1.5:1.0:0.02 v/v ratio to obtain spray solutions containing the application rate. Compound requirements are based upon a 12 mL application volume at a rate of 187 liters per hectare (L/ha). Formulated compounds were applied to the plant material with an overhead Mandel track sprayer equipped with […] nozzles calibrated to deliver 187 L/ha over an application area of 0.64 square meters at a spray height of 18 inches (43 cm) above the average plant canopy height. Control plants were sprayed in the same manner with the solvent blank. The treated plants and control plants were placed in a greenhouse as described above and watered by subirrigation to prevent wash-off of the test compounds. After 14 d, the condition of the test plants as compared with that of the nontreated and control plants was determined visually and scored on a scale of 0 to 100 percent where 0 corresponds to no injury and 100 corresponds to complete control. In the reporting of the results, Table A: Percent Growth Reduction Conversion Table was used.

**Q.** With `COC(=O)c1nc(-c2ccc(F)c(OC)c2)ccc1Cl` [F292, Methyl 3-chloro-6-(4-fluoro-3-methoxyphenyl) picolinate] as the molecule, how does the pest or weed control at 140 g/ha read?
**A.** 0 to 29%

**Q.** How did the pest or weed control at 140 g/ha turn out when `COC(=O)c1nc(-c2ccc(C3CC3)c(F)c2)ccc1Cl` [F287, Methyl 3-chloro-6-(4-cyclopropyl-3-fluorophenyl) picolinate] was run?
**A.** 0 to 29%

Same assay, conditions: post-emergence, 336 h, IPOHE: ivy-leaf morning glory (Ipomoea hederacea), 140 g ai/ha, 14 days after application, read-out: Visual Growth Reduction (%) 14 Days After Application, IPOHE

**Q.** How did the pest or weed control at 140 g/ha turn out when `COC(=O)c1nc(-c2ccc(F)c(OC)c2)ccc1Cl` [F292, Methyl 3-chloro-6-(4-fluoro-3-methoxyphenyl) picolinate] was run?
**A.** 30 to 44%

**Q.** `COC(=O)c1nc(-c2ccc(C3CC3)c(F)c2)ccc1Cl` [F287, Methyl 3-chloro-6-(4-cyclopropyl-3-fluorophenyl) picolinate] was tested. Which pest or weed control at 140 g/ha did it give?
**A.** 60 to 74%

Same assay, conditions: post-emergence, 336 h, KCHSC: kochia (Bassia scoparia), 140 g ai/ha, 14 days after application, read-out: Visual Growth Reduction (%) 14 Days After Application, KCHSC

**Q.** With `COC(=O)c1nc(-c2ccc(F)c(OC)c2)ccc1Cl` [F292, Methyl 3-chloro-6-(4-fluoro-3-methoxyphenyl) picolinate] as the molecule, how does the pest or weed control at 140 g/ha read?
**A.** 45 to 59%

**Q.** How did the pest or weed control at 140 g/ha turn out when `COC(=O)c1nc(-c2ccc(C3CC3)c(F)c2)ccc1Cl` [F287, Methyl 3-chloro-6-(4-cyclopropyl-3-fluorophenyl) picolinate] was run?
**A.** 0 to 29%

Same assay, conditions: post-emergence, 336 h, ORYSA: rice (Oryza sativa), 140 g ai/ha, 14 days after application, read-out: Visual Growth Reduction (%) 14 Days After Application, ORYSA

**Q.** For `COC(=O)c1nc(-c2ccc(F)c(OC)c2)ccc1Cl` [F292, Methyl 3-chloro-6-(4-fluoro-3-methoxyphenyl) picolinate], which pest or weed control at 140 g/ha is on record?
**A.** 0 to 29%

**Q.** For `COC(=O)c1nc(-c2ccc(C3CC3)c(F)c2)ccc1Cl` [F287, Methyl 3-chloro-6-(4-cyclopropyl-3-fluorophenyl) picolinate], which pest or weed control at 140 g/ha is on record?
**A.** 0 to 29%

Same assay, conditions: post-emergence, 336 h, SETFA: giant foxtail (Setaria faberi), 140 g ai/ha, 14 days after application, read-out: Visual Growth Reduction (%) 14 Days After Application, SETFA

**Q.** How did the pest or weed control at 140 g/ha turn out when `COC(=O)c1nc(-c2ccc(F)c(OC)c2)ccc1Cl` [F292, Methyl 3-chloro-6-(4-fluoro-3-methoxyphenyl) picolinate] was run?
**A.** 0 to 29%

**Q.** With `COC(=O)c1nc(-c2ccc(C3CC3)c(F)c2)ccc1Cl` [F287, Methyl 3-chloro-6-(4-cyclopropyl-3-fluorophenyl) picolinate] as the molecule, how does the pest or weed control at 140 g/ha read?
**A.** 0 to 29%

Same assay, conditions: post-emergence, 336 h, SORVU: grain sorghum (Sorghum vulgare), 140 g ai/ha, 14 days after application, read-out: Visual Growth Reduction (%) 14 Days After Application, SORVU

**Q.** `COC(=O)c1nc(-c2ccc(F)c(OC)c2)ccc1Cl` [F292, Methyl 3-chloro-6-(4-fluoro-3-methoxyphenyl) picolinate] was tested. Which pest or weed control at 140 g/ha did it give?
**A.** 0 to 29%

**Q.** With `COC(=O)c1nc(-c2ccc(C3CC3)c(F)c2)ccc1Cl` [F287, Methyl 3-chloro-6-(4-cyclopropyl-3-fluorophenyl) picolinate] as the molecule, how does the pest or weed control at 140 g/ha read?
**A.** 0 to 29%

Same assay, conditions: post-emergence, 336 h, STEME: common chickweed (Stellaria media), 140 g ai/ha, 14 days after application, read-out: Visual Growth Reduction (%) 14 Days After Application, STEME

**Q.** Which pest or weed control at 140 g/ha does the source give for `COC(=O)c1nc(-c2ccc(F)c(OC)c2)ccc1Cl` [F292, Methyl 3-chloro-6-(4-fluoro-3-methoxyphenyl) picolinate] here?
**A.** 0 to 29%

**Q.** How did the pest or weed control at 140 g/ha turn out when `COC(=O)c1nc(-c2ccc(C3CC3)c(F)c2)ccc1Cl` [F287, Methyl 3-chloro-6-(4-cyclopropyl-3-fluorophenyl) picolinate] was run?
**A.** 0 to 29%

Same assay, conditions: post-emergence, 336 h, TRZAS: wheat, spring (Triticum aestivum), 140 g ai/ha, 14 days after application, read-out: Visual Growth Reduction (%) 14 Days After Application, TRZAS

**Q.** For `COC(=O)c1nc(-c2ccc(F)c(OC)c2)ccc1Cl` [F292, Methyl 3-chloro-6-(4-fluoro-3-methoxyphenyl) picolinate], which pest or weed control at 140 g/ha is on record?
**A.** 0 to 29%

**Q.** Which pest or weed control at 140 g/ha does the source give for `COC(=O)c1nc(-c2ccc(C3CC3)c(F)c2)ccc1Cl` [F287, Methyl 3-chloro-6-(4-cyclopropyl-3-fluorophenyl) picolinate] here?
**A.** 0 to 29%

Same assay, conditions: post-emergence, 336 h, blackgrass (Alopecurus myosuroides), 14 Days After Application, 140 g ai/ha, read-out: Visual Growth Reduction (%) ALOMY

**Q.** With `COC(=O)c1nc(-c2ccc(F)c(OC)c2)ccc1Cl` [F292, Methyl 3-chloro-6-(4-fluoro-3-methoxyphenyl) picolinate] as the molecule, how does the pest or weed control at 140 g/ha read?
**A.** 0 to 29%

**Q.** Which pest or weed control at 140 g/ha does the source give for `COC(=O)c1nc(-c2ccc(C3CC3)c(F)c2)ccc1Cl` [F287, Methyl 3-chloro-6-(4-cyclopropyl-3-fluorophenyl) picolinate] here?
**A.** 0 to 29%

Same assay, conditions: post-emergence, 336 h, canada thistle (Cirsium arvense), 14 Days After Application, 140 g ai/ha, read-out: Visual Growth Reduction (%) CIRAR

**Q.** With `COC(=O)c1nc(-c2ccc(F)c(OC)c2)ccc1Cl` [F292, Methyl 3-chloro-6-(4-fluoro-3-methoxyphenyl) picolinate] as the molecule, how does the pest or weed control at 140 g/ha read?
**A.** 60 to 74%

**Q.** Which pest or weed control at 140 g/ha does the source give for `COC(=O)c1nc(-c2ccc(C3CC3)c(F)c2)ccc1Cl` [F287, Methyl 3-chloro-6-(4-cyclopropyl-3-fluorophenyl) picolinate] here?
**A.** 0 to 29%

Same assay, conditions: post-emergence, 336 h, crabgrass (Digitaria sanguinalis), 14 Days After Application, 140 g ai/ha, read-out: Visual Growth Reduction (%) DIGSA

**Q.** Which pest or weed control at 140 g/ha does the source give for `COC(=O)c1nc(-c2ccc(F)c(OC)c2)ccc1Cl` [F292, Methyl 3-chloro-6-(4-fluoro-3-methoxyphenyl) picolinate] here?
**A.** 0 to 29%

**Q.** Which pest or weed control at 140 g/ha does the source give for `COC(=O)c1nc(-c2ccc(C3CC3)c(F)c2)ccc1Cl` [F287, Methyl 3-chloro-6-(4-cyclopropyl-3-fluorophenyl) picolinate] here?
**A.** 0 to 29%

Same assay, conditions: post-emergence, 336 h, lambsquarters (Chenopodium album), 14 Days After Application, 140 g ai/ha, read-out: Visual Growth Reduction (%) CHEAL

**Q.** With `COC(=O)c1nc(-c2ccc(F)c(OC)c2)ccc1Cl` [F292, Methyl 3-chloro-6-(4-fluoro-3-methoxyphenyl) picolinate] as the molecule, how does the pest or weed control at 140 g/ha read?
**A.** 85 to 94%

**Q.** With `COC(=O)c1nc(-c2ccc(C3CC3)c(F)c2)ccc1Cl` [F287, Methyl 3-chloro-6-(4-cyclopropyl-3-fluorophenyl) picolinate] as the molecule, how does the pest or weed control at 140 g/ha read?
**A.** 0 to 29%

Same assay, conditions: post-emergence, 336 h, redroot pigweed (Amaranthus retroflexus), 14 Days After Application, 140 g ai/ha, read-out: Visual Growth Reduction (%) AMARE

**Q.** How did the pest or weed control at 140 g/ha turn out when `COC(=O)c1nc(-c2ccc(F)c(OC)c2)ccc1Cl` [F292, Methyl 3-chloro-6-(4-fluoro-3-methoxyphenyl) picolinate] was run?
**A.** 0 to 29%

**Q.** Which pest or weed control at 140 g/ha does the source give for `COC(=O)c1nc(-c2ccc(C3CC3)c(F)c2)ccc1Cl` [F287, Methyl 3-chloro-6-(4-cyclopropyl-3-fluorophenyl) picolinate] here?
**A.** 0 to 29%

Same assay, conditions: post-emergence, 336 h, wild oat (Avena fatua), 14 Days After Application, 140 g ai/ha, read-out: Visual Growth Reduction (%) AVEFA

**Q.** `COC(=O)c1nc(-c2ccc(F)c(OC)c2)ccc1Cl` [F292, Methyl 3-chloro-6-(4-fluoro-3-methoxyphenyl) picolinate] was tested. Which pest or weed control at 140 g/ha did it give?
**A.** 0 to 29%

**Q.** For `COC(=O)c1nc(-c2ccc(C3CC3)c(F)c2)ccc1Cl` [F287, Methyl 3-chloro-6-(4-cyclopropyl-3-fluorophenyl) picolinate], which pest or weed control at 140 g/ha is on record?
**A.** 0 to 29%

Same assay, conditions: post-emergence, 336 h, yellow nutsedge (Cyperus esculentus), 14 Days After Application, 140 g ai/ha, read-out: Visual Growth Reduction (%) CYPES

**Q.** For `COC(=O)c1nc(-c2ccc(F)c(OC)c2)ccc1Cl` [F292, Methyl 3-chloro-6-(4-fluoro-3-methoxyphenyl) picolinate], which pest or weed control at 140 g/ha is on record?
**A.** 60 to 74%

**Q.** With `COC(=O)c1nc(-c2ccc(C3CC3)c(F)c2)ccc1Cl` [F287, Methyl 3-chloro-6-(4-cyclopropyl-3-fluorophenyl) picolinate] as the molecule, how does the pest or weed control at 140 g/ha read?
**A.** 0 to 29%
